In ChEMBL document CHEMBL2073903, “The expression of P-glycoprotein does influence the distribution of novel fluorescent compounds in solid tumour models” (Br J Cancer, 2003):

Molecular target: ATP-dependent translocase ABCB1 (Homo sapiens, UniProt P08183)
Experiment: TP_TRANSPORTER: ATPase assay in reconstituted P-gp
Format: functional

Chain of ATP-dependent translocase ABCB1 (P08183 whole entry): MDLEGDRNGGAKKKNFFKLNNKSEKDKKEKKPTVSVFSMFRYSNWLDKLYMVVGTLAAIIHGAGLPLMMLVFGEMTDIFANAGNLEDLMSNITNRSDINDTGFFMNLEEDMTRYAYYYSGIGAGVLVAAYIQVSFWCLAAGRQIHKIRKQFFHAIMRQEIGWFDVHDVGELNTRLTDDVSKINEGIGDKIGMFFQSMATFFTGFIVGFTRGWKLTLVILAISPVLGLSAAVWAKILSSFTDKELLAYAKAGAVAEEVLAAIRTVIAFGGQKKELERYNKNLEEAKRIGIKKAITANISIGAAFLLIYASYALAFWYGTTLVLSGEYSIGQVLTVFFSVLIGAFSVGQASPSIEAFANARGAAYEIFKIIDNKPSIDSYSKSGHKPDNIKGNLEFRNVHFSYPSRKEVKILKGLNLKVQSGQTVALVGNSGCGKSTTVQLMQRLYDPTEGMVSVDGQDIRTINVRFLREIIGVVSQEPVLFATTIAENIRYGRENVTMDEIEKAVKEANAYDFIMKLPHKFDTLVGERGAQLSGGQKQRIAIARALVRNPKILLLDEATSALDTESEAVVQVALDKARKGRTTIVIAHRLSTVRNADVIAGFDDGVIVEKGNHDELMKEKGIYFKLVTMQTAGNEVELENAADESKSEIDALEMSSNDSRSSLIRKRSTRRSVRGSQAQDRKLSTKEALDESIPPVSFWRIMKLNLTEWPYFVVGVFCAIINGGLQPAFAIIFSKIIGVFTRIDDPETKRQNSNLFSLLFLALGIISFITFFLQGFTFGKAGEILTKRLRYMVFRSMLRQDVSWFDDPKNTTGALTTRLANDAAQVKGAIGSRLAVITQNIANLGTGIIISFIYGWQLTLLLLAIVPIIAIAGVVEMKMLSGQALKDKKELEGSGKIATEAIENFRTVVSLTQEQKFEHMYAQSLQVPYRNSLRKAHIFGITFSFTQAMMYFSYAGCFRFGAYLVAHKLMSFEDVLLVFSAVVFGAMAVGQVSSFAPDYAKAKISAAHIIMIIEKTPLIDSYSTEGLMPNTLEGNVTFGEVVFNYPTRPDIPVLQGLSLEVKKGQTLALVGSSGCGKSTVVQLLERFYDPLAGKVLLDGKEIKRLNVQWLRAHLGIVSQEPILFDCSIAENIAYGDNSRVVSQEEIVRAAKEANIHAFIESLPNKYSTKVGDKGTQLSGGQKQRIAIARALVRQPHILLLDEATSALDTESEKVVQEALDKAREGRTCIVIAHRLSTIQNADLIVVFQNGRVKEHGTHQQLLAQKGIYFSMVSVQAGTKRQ

Activity: substrate [+]
SMILES: CC(=O)O[C@H]1C(=O)[C@@]2(C)C([C@H](OC(=O)c3ccccc3)[C@]3(O)C[C@H](OC(=O)[C@H](O)[C@@H](NC(=O)CCC4=[N+]5C(=Cc6c(C)cc(C)n6[B-]5(F)F)C=C4)c4ccccc4)C(C)=C1C3(C)C)[C@]1(OC(C)=O)CO[C@@H]1C[C@@H]2O (stereo partly specified)
